The text below walks through data of patent publication US7144551B2, “Mold remediation system and method” (DH Technologies, L.L.P., priority 2002, dated 2006).

Data set [1] deals with germs on surfaces. Kind of data set: Label-recommended hypochlorite concentration for sanitization of surfaces (Ultra Clorox label).
In the next data set the test system is mold and mold stains. In words: Mold kill and mold stain removal study: vapor from acidified 6.0% NaOCl diluted in water, in a 1400 cc container. It counts as cell-based. Conditions: 5 mL 6.0% NaOCl + 50 mL water, in 1400 cc. As for the experimental part:
First, the recommended concentration of HOCl for sanitization of surfaces according to the prior art is calculated. Referring to the label of Ultra Chlorox® brand of sodium hypochlorite and noticing that a recommended concentration of NaOCl for mold and mildew stain removal is 3⁄4 cup Ultra Chlorox® plus one gallon of water. Ultra Chlorox® contains 6.00% NaOCl per the label. […] For the mold remediation studies, 5 mL of 6.0% NaOCl was mixed with 50 mL of water, acidified and was placed in a container with a volume of 1400 cc. • 5 mL of 6.0% NaOCl=0.30 g NaOCl • Assuming all of the NaOCl is converted to HOCl: • 0.30 g NaOCl=(0.30 g NaOCl)(52.5 g HOCl)/(74.5 g NaOCl)=0.21 g HOCl This quantity of HOCl is diluted to 1400 cc. Therefore, the maximum concentration of HOCl gas in the container studied is: • 0.21 g HOCl/1400 cc=15×10^-5 g HOCl/cc […]

The next data set deals with mold and mildew stain. In words: Label-recommended hypochlorite concentration for mold and mildew stain removal (Ultra Chlorox label). As for the experimental part:
First, the recommended concentration of HOCl for sanitization of surfaces according to the prior art is calculated. Referring to the label of Ultra Chlorox® brand of sodium hypochlorite and noticing that a recommended concentration of NaOCl for mold and mildew stain removal is 3⁄4 cup Ultra Chlorox® plus one gallon of water. Ultra Chlorox® contains 6.00% NaOCl per the label. […] For the mold remediation studies, 5 mL of 6.0% NaOCl was mixed with 50 mL of water, acidified and was placed in a container with a volume of 1400 cc. • 5 mL of 6.0% NaOCl=0.30 g NaOCl • Assuming all of the NaOCl is converted to HOCl: • 0.30 g NaOCl=(0.30 g NaOCl)(52.5 g HOCl)/(74.5 g NaOCl)=0.21 g HOCl This quantity of HOCl is diluted to 1400 cc. Therefore, the maximum concentration of HOCl gas in the container studied is: • 0.21 g HOCl/1400 cc=15×10^-5 g HOCl/cc

The next data set deals with mold colonies. Kind of data set: Cidal action of controlled hypochlorous acid vapor on mold colonies (general statements). It counts as cell-based.
The conditions of data set [2]: cited from earlier work.
The subject of the next data set is mold. Kind of data set: Mold remediation study: vapor from acidified 600 ppm NaOCl in a closed 1400 cc container. It counts as cell-based. As to conditions: 10 ml acidified 600 ppm NaOCl in 1400 cc; all NaOCl assumed converted to HOCl. As for the experimental part: For purposes of the calculation which now follows, it is assumed that essentially all of the NaOCl is converted to HOCl when acidified, which is a valid assumption given the equilibrium of the reaction. For mold remediation studies, 10 ml of acidified 600 ppm NaOCl was placed in a container with a volume of 1400 cc. • 10 ml of 600 ppm NaOCl=0.00600 g NaOCl/10 ml • 0.00600 g NaOCl=(0.00600 g NaOCl)(52.5 g HOCl)/(74.5 g NaOCl)=0.00423 g HOCl This quantity is diluted to 1400 cc. Therefore, the maximum concentration of HOCl gas in the container studied is: • 0.00423 g/1400 cc=3.02×10^−6 g HOCl/cc. […] Thus, we have discovered that by converting the NaOCl to HOCl and using it in the form of a gas the concentration needed for mold cidal activity is at least about 47 times less than is recommended for sanitation in the liquid form of hypochlorite bleach! We next investigated the removal of mold stain from surfaces.

Data set [3] relates to germs on surfaces. Conditions: cited from earlier work.

Like-named read-outs stand apart in the source and are kept apart here.

Consider `OCl` [hypochlorous acid], for which, in the data set on germs on surfaces [1] (calculated from 200 ppm NaOCl, liquid), the “equivalent concentration of HOCl necessary to sanitize per manufacturer recommendation” value is 1.41×10^−4 g HOCL/cc. Further, the “maximum concentration of HOCl gas in the container found to kill mold and remove stains” value with mold and mold stains is recorded as 15×10^−5 g HOCl/cc. In addition, the “Conc. of HOCl equivalent to the recommended stain removal solution” value in the data set on mold and mildew stain (all NaOCl assumed converted to HOCl) is 0.0019 g HOCl/cc. Further, in the data set with mold colonies (hypochlorous acid vapors generated and controlled as described), the “time to completely eradicate even the most refractory of mold colonies” value is not above 24 h. Also, the “hypochlorous acid concentration in the air that must be exceeded for effective cidal action on mold-contaminated materials” value with mold colonies (in air) is “exceed 3×10^−7 grams/cubic centimeter”. Moreover, the “% as HOCl” value in data set [2] (pH 5.0) is on record as 100%; in data set [2] (pH 6.0), 96%; in data set [2] (pH 7.0), 72%; in data set [2] (pH 7.2), 66%; in data set [2] (pH 7.5), 48%; in data set [2] (pH 7.8), 33%. Besides, the “% as HOCl” value in data set [2] (pH 8.0) was 22%. Besides, the “maximum concentration of HOCl gas in the container found to kill mold” value in the data set on mold is 3.02×10^−6 g HOCl/cc.
Turning to `OCl` [sodium hypochlorite, reference compound], the “recommended sanitizing concentration expressed by volume” value with germs on surfaces [1] (corresponds to 200 ppm aqueous solution) is 200×10^−6 grams/cc. Moreover, in the data set with mold and mildew stain (¾ cup Ultra Chlorox (6.00% NaOCl) plus one gallon of water), the “NaOCl conc. recommended by Ultra Chlorox for mold and mildew stain removal” value came to 0.0027 g/cc. Also, the “recommended concentration for killing germs on surfaces / sanitation” value in the data set with germs on surfaces [3] is 200 ppm.
Turning to hypochlorite ion [OCl—], the “% as OCl—” value in data set [2] (pH 5.0) is listed as 0%; in data set [2] (pH 6.0) it was 4%; in data set [2] (pH 7.0), 28%; in data set [2] (pH 7.2), 34%; in data set [2] (pH 7.5), 52%; in data set [2] (pH 7.8), 67%. Further, the “% as OCl—” value in data set [2] (pH 8.0) is 78%.
